21 compounds from US20250236608A1, “EGFR INHIBITORS” (Blueprint Medicines Corporation, priority 2022, published 2025) can be followed below.

The IC50 is the concentration needed to halve the response being measured.

One experiment addresses EGFR (d746-750) (Homo sapiens (Human), UniProt P00533, DEL746-750). Nature of the experiment: Biochemical EGFR inhibition assay, EGFR (d746-750). As to conditions: Caliper mobility shift; 1.0 mM ATP or ATP Km; read-out: Enz EGFR_Exon19-del746-750 IC50.
In the next experiment the target is EGFR L858R (Homo sapiens (Human), UniProt P00533, L858R). As to the kind of experiment: Biochemical EGFR inhibition assay, EGFR L858R. The following applies: Caliper mobility shift; 1.0 mM ATP or ATP Km; read-out: Enz EGFR_L858R IC50.
Sequence of EGFR L858R (P00533 25-1210 L858R): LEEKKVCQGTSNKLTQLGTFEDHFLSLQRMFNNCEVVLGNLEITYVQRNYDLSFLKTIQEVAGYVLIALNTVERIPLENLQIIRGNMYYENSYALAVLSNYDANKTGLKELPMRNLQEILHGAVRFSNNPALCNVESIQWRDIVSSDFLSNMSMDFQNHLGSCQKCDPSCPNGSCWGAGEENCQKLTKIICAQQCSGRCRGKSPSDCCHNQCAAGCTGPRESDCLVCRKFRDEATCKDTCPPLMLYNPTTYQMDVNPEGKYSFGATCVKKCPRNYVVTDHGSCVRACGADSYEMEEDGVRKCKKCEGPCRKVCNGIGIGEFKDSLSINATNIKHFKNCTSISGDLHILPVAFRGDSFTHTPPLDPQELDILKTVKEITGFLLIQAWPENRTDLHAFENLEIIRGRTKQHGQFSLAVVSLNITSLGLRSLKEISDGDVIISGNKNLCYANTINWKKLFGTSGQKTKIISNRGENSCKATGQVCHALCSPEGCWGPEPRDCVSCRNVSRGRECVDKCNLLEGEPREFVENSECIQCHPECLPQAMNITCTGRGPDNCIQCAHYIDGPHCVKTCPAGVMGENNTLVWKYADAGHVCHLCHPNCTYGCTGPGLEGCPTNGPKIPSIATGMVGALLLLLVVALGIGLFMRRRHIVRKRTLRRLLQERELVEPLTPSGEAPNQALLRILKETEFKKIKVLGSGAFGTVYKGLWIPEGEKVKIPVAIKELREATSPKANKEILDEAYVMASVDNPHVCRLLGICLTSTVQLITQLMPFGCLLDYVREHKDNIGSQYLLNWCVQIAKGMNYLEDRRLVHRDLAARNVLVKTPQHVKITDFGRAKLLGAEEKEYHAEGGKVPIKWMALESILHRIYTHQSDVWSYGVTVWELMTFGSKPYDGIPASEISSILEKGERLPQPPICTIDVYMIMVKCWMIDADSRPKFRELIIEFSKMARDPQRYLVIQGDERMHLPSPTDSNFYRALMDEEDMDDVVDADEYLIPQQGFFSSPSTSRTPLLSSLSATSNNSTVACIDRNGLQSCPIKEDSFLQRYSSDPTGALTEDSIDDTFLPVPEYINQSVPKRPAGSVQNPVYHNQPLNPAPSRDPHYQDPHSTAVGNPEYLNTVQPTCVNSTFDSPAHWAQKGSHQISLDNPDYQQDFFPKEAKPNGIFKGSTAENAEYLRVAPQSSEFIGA
For experiment [1], the target named is pEGFR (Tyr1068) in PC-9 cells (Ex19Del) (Homo sapiens (Human), UniProt P00533, DEL746-750). As to the kind of experiment: PC-9 pEGFR AlphaLISA assay. The class given is cell-based. As to conditions: 4 hours incubation, p-EGFR (Tyr1068) AlphaLISA, read-out: Ext pEGFR_PC-9 Ex19Del IC50. The method in brief: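 First, cells settled overnight in 10% FBS medium. Second, a 10-point, 4-fold series of test agents was applied for 4 h at 37° C. Third, lysates were probed with AlphaLISA acceptor and donor beads, incubated overnight in the dark. Last, IC50 was taken from the dose-response.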
Sequence of pEGFR (Tyr1068) in PC-9 cells (Ex19Del) (P00533 other isoform, or with tags, fused parts or gaps del 746-750): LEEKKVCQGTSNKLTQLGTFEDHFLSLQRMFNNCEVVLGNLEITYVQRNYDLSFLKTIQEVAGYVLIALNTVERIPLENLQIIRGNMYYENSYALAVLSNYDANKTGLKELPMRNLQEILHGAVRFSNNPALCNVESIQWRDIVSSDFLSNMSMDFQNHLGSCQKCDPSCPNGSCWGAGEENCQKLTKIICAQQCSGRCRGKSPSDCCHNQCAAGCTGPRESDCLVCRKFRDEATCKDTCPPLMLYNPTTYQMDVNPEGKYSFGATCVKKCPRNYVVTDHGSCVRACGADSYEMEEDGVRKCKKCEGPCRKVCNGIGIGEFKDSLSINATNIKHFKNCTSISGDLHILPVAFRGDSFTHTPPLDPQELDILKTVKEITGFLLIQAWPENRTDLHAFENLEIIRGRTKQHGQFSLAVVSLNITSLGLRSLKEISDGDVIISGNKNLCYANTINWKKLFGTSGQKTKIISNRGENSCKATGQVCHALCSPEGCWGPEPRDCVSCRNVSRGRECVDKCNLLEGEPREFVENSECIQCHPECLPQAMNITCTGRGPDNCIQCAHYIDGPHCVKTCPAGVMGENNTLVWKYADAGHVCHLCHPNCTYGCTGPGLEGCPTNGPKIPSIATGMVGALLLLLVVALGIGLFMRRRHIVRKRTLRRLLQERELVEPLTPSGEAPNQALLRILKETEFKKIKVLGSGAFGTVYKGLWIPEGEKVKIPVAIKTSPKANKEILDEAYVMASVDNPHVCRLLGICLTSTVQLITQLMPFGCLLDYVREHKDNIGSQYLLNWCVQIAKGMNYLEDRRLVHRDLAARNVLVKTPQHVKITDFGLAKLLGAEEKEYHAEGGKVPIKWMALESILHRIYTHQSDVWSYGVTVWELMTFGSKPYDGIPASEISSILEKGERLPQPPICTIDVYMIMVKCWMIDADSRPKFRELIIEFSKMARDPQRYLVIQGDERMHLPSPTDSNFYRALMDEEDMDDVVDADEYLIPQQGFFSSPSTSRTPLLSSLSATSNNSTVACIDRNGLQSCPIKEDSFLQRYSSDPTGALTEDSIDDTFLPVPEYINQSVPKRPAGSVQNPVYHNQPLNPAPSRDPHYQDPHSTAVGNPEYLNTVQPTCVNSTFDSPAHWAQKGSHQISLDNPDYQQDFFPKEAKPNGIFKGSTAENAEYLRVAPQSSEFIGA
Background: Alpha assays give light when donor and acceptor beads are brought close together.

Sequence of EGFR (d746-750) (P00533 other isoform, or with tags, fused parts or gaps del 1-694/del 746-750 limits assumed): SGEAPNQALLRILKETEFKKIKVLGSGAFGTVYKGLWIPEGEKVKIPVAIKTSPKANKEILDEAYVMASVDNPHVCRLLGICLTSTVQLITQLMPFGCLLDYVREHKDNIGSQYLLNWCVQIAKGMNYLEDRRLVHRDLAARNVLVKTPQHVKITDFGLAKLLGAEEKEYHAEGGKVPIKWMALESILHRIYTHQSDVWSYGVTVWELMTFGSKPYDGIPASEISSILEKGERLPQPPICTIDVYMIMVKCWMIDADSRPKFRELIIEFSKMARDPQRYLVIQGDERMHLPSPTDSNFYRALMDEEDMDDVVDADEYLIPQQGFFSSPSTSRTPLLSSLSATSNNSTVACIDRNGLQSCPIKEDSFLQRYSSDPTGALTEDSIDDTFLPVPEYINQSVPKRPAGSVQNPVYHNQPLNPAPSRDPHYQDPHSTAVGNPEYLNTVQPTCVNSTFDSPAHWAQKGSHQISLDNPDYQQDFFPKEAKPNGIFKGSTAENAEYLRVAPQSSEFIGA

With `CCOc1cc2ncnc(-c3cn(C)nc3-c3ccc(F)cc3)c2nc1NC(=O)[C@]12C[C@H]1CN(C)C2` (single isomer, unassigned) [Example 376, (1R,5R)—N-(7-ethoxy-4-(3-(4-fluorophenyl)-1-methyl-1H-pyrazol-4-yl)pyrido[3,2-d]pyrimidin-6-yl)-3-methyl-3-azabicyclo[3.1.0]hexane-1-carboxamide or (1S,5S)—N-(7-ethoxy-4-(3-(4-fluorophenyl)-1-methyl-1H-pyrazol-4-yl)pyrido[3,2-d]pyrimidin-6-yl)-3-methyl-3-azabicyclo[3.1.0]hexane-1-carboxamide], the figures for the IC50 (on EGFR (d746-750); at EGFR L858R; in experiment [1]) were 0.4 nM, 1.3 nM and 2.7 nM, respectively.

Turning to `CCn1cc(-c2ncnc3cc(OC)c([C@H](C)O)cc23)c(-c2ccccc2)n1` (single isomer, unassigned) [Example 105, (S)-1-(4-(1-ethyl-3-phenyl-1H-pyrazol-4-yl)-7-methoxyquinazolin-6-yl)ethan-1-ol or (R)-1-(4-(1-ethyl-3-phenyl-1H-pyrazol-4-yl)-7-methoxyquinazolin-6-yl)ethan-1-ol], the half-maximal inhibitory concentration (IC50) on EGFR (d746-750) was 1.3 nM; at EGFR L858R it was 3.3 nM; in experiment [1] it was 6.5 nM.

As to `COc1cc2ncnc(-c3cn(C)nc3-c3ccccc3)c2nc1NC(=O)c1cnn(C(F)(F)F)c1` [Example 360, N-(7-methoxy-4-(1-methyl-3-phenyl-1H-pyrazol-4-yl)pyrido[3,2-d]pyrimidin-6-yl)-1-(trifluoromethyl)-1H-pyrazole-4-carboxamide], the IC50 at EGFR (d746-750) came to 1 nM; at EGFR L858R, 1.8 nM; in experiment [1], 2.7 nM.

Regarding `COc1cc2ncnc(-c3cn(C)nc3-c3c(F)cccc3F)c2cc1NC(=O)C1CC1` [Example 338, N-(4-(3-(2,6-difluorophenyl)-1-methyl-1H-pyrazol-4-yl)-7-methoxyquinazolin-6-yl)cyclopropanecarboxamide], the IC50 is 1.2 nM on EGFR (d746-750), 1.9 nM at EGFR L858R and 2.3 nM in experiment [1].

On to `COc1cc2ncnc(-c3cn(C)nc3-c3ccccc3)c2cc1NC(=O)c1ccc(F)cc1` [Example 222, 4-fluoro-N-(7-methoxy-4-(1-methyl-3-phenyl-1H-pyrazol-4-yl)quinazolin-6-yl)benzamide], for which the figures for the IC50 (on EGFR (d746-750); on EGFR L858R; in experiment [1]) were 0.9 nM, 1.5 nM and 1.5 nM, respectively.

On to `COc1cc2ncnc(-c3cn(CC(F)F)nc3-c3ccccc3)c2nc1NC(=O)[C@]12C[C@H]1CN(C)C2` (single isomer, unassigned) [Example 396, (1R,5R)—N-(4-(1-(2,2-difluoroethyl)-3-phenyl-1H-pyrazol-4-yl)-7-methoxypyrido[3,2-d]pyrimidin-6-yl)-3-methyl-3-azabicyclo[3.1.0]hexane-1-carboxamide or (1S,5S)—N-(4-(1-(2,2-difluoroethyl)-3-phenyl-1H-pyrazol-4-yl)-7-methoxypyrido[3,2-d]pyrimidin-6-yl)-3-methyl-3-azabicyclo[3.1.0]hexane-1-carboxamide], for which the figures for the IC50 (on EGFR (d746-750); on EGFR L858R; in experiment [1]) were 1.1 nM, 1.7 nM and 0.5 nM, respectively.

Take `COc1cc2ncnc(-c3cn(C)nc3-c3ccccc3)c2cc1OC(=O)N1CCOC[C@@H]1C` [Example 62, 7-methoxy-4-(1-methyl-3-phenyl-1H-pyrazol-4-yl)quinazolin-6-yl (S)-3-methylmorpholine-4-carboxylate]: the IC50 stood at 2.5 nM on EGFR (d746-750), 4.2 nM on EGFR L858R and 8.7 nM in experiment [1].

For the compound `CCn1ncc(-c2ncnc3cc(-c4cnn(C)c4)ccc23)c1-c1ccccc1` [Example 495], the IC50 at EGFR (d746-750) was 2.3 nM; at EGFR L858R it was 1.2 nM; in experiment [1] it was 15.3 nM.

With `COc1cc2ncnc(-c3cn(C)nc3-c3ccccc3)c2cc1NC(=O)C[C@@H]1CCCO1` [Example 281, (S)—N-(7-methoxy-4-(1-methyl-3-phenyl-1H-pyrazol-4-yl)quinazolin-6-yl)-2-(tetrahydrofuran-2-yl) acetamide], the IC50 at EGFR (d746-750) amounted to 1.4 nM; on EGFR L858R, 2.2 nM; in experiment [1] it was 2.3 nM.

On to `CN(C)C12CC(C(=O)Nc3nc4c(-c5cn(C)nc5-c5ccccc5F)ncnc4cc3OC3CC3)(C1)C2` [Example 469, N-{7-cyclopropoxy-4-[3-(2-fluorophenyl)-1-methyl-1H-pyrazol-4-yl]pyrido[3,2-d]pyrimidin-6-yl}-3-(dimethylamino) bicyclo[1.1.1]pentane-1-carboxamide], for which the IC50 worked out at 2.4 nM on EGFR (d746-750), 11.1 nM on EGFR L858R and 2.7 nM in experiment [1].

Turning to `COc1cc2ncnc(-c3cn(C)nc3-c3ccccc3)c2cc1NC(=O)C1CC1` [Example 344, N-(7-methoxy-4-(1-methyl-3-phenyl-1H-pyrazol-4-yl)quinazolin-6-yl)cyclopropanecarboxamide], the IC50 on EGFR (d746-750) was 1 nM; at EGFR L858R it was 1.6 nM; in experiment [1] it was 0.8 nM.

As for `COc1cc2ncnc(-c3cn(C)nc3-c3ccccc3)c2nc1O[C@H](C)c1cscn1` (single isomer, unassigned) [Example 49, (R)-4-(1-((7-methoxy-4-(1-methyl-3-phenyl-1H-pyrazol-4-yl)pyrido[3,2-d]pyrimidin-6-yl)oxy)ethyl)thiazole or (S)-4-(1-((7-methoxy-4-(1-methyl-3-phenyl-1H-pyrazol-4-yl)pyrido[3,2-d]pyrimidin-6-yl)oxy)ethyl)thiazole], the half-inhibitory concentration (IC50) at EGFR (d746-750) is 0.6 nM; at EGFR L858R, 1.3 nM; in experiment [1], 1.2 nM.

For `CCOc1cc2ncnc(-c3cn(CC)nc3-c3ccccc3)c2cc1N1CCOCC1` [Example 170, 4-(7-ethoxy-4-(1-ethyl-3-phenyl-1H-pyrazol-4-yl)quinazolin-6-yl)morpholine], the IC50 at EGFR (d746-750) is 0.9 nM; at EGFR L858R it was 2 nM; in experiment [1], 1.2 nM.

Turning to `COc1cc2ncnc(-c3cn(C)nc3-c3ccccc3)c2cc1OC(=O)N1CCN(C)[C@H]2C[C@H]21` (racemic) [Example 82, Cis-rac-7-methoxy-4-(1-methyl-3-phenyl-1H-pyrazol-4-yl)quinazolin-6-yl (1R,6S)-5-methyl-2,5-diazabicyclo[4.1.0]heptane-2-carboxylate], the IC50 on EGFR (d746-750) is 3.3 nM; on EGFR L858R, 5.3 nM; in experiment [1] it was 3.9 nM.

Regarding `COc1cc2ncnc(-c3cn(C)nc3-c3ccccc3)c2nc1O[C@@H](C)c1nnnn1C` [Example 45, (S)-7-methoxy-6-(1-(1-methyl-1H-tetrazol-5-yl)ethoxy)-4-(1-methyl-3-phenyl-1H-pyrazol-4-yl)pyrido[3,2-d]pyrimidine], the figures for the IC50 (on EGFR (d746-750); on EGFR L858R; in experiment [1]) were 3.6 nM, 9.4 nM and 14.3 nM, respectively.

Turning to `COc1cc2ncnc(-c3cn(C)nc3-c3ccccc3)c2cc1NC(=O)N1CCO[C@@H](C)[C@@H]1C` [Example 177, (2S,3S)—N-(7-methoxy-4-(1-methyl-3-phenyl-1H-pyrazol-4-yl)quinazolin-6-yl)-2,3-dimethylmorpholine-4-carboxamide], the IC50 at EGFR (d746-750) is 2.1 nM; on EGFR L858R, 4.3 nM; in experiment [1], 6.1 nM.

For `Cc1ncsc1C(=O)Nc1cc2c(-c3cn(C)nc3-c3ccccc3)ncnc2cc1OCCN(C)C` [Example 303, N-(7-(2-(dimethylamino)ethoxy)-4-(1-methyl-3-phenyl-1H-pyrazol-4-yl)quinazolin-6-yl)-4-methylthiazole-5-carboxamide], the IC50 was 2.9 nM at EGFR (d746-750), 11 nM at EGFR L858R and 8.8 nM in experiment [1].

Consider `COc1cc2ncnc(-c3cn(C)nc3-c3ccccc3)c2cc1NC(=O)[C@]12COC[C@H]1C2` (single isomer, unassigned) [Example 260, (1S,5S)—N-(7-methoxy-4-(1-methyl-3-phenyl-1H-pyrazol-4-yl)quinazolin-6-yl)-5-methyl-3-oxabicyclo[3.1.0]hexane-1-carboxamide or (1R,5R)—N-(7-methoxy-4-(1-methyl-3-phenyl-1H-pyrazol-4-yl)quinazolin-6-yl)-3-oxabicyclo[3.1.0]hexane-1-carboxamide], for which the values for the IC50 (on EGFR (d746-750); at EGFR L858R; in experiment [1]) were 1.2 nM, 6.8 nM and 3.2 nM, respectively.

In the case of `COc1cc2ncnc(-c3cn(C)nc3-c3ccccc3)c2cc1-c1cccc(C(=O)NC2CC2)c1` [Example 142, N-cyclopropyl-3-(7-methoxy-4-(1-methyl-3-phenyl-1H-pyrazol-4-yl)quinazolin-6-yl)benzamide], the IC50 worked out at 2.8 nM at EGFR (d746-750), 3.2 nM at EGFR L858R and 7.1 nM in experiment [1].

As to `COc1cc2ncnc(-c3cn(CC(F)F)nc3-c3ccccc3)c2cc1OCCCN1CCOCC1` [Example 23, 4-(3-((4-(1-(2,2-difluoroethyl)-3-phenyl-1H-pyrazol-4-yl)-7-methoxyquinazolin-6-yl)oxy)propyl)morpholine], the IC50 was found to be 0.9 nM at EGFR (d746-750), 1.9 nM on EGFR L858R and 0.8 nM in experiment [1].

For `COc1cc2ncnc(-c3cn(C)nc3-c3ccccc3)c2cc1OC(=O)N1C(C)CN(C)C[C@H]1C` (stereo in doubt) [Example 90, 7-methoxy-4-(1-methyl-3-phenyl-1H-pyrazol-4-yl)quinazolin-6-yl (2R,6R)-2,4,6-trimethylpiperazine-1-carboxylate], the values for the IC50 (at EGFR (d746-750); on EGFR L858R; in experiment [1]) were 8.5 nM, 14 nM and 31.6 nM, respectively.
